“And” between values parts separate entries of the source, which are not always exact repeats. Equal values may be shown once. Toxic doses and inconclusive results are not listed. Rule as the data show it: active = T/C of 150% or more; inactive = T/C below 125%. Peptide text beside a SMILES is read from it.
Test system: L1210 leukemia ip in BDF1 mice, survival T/C
Test: NCI In Vivo Anticancer Drug Screen. Data for tumor model L1210 Leukemia (intraperitoneal) in B6D2F1 (BDF1) mice
Conditions: endpoint: mean survival time, higher = longer survival
How it was run: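 Read-out is survival time, reported as the treated-group measurement over the vehicle-control measurement.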

[1] = dose: 12.5 mg/kg/injection, schedule: Q01DX009 (ip), vehicle: saline with Tween-80
[2] = dose: 25.0 mg/kg/injection, schedule: Q01DX009 (ip), vehicle: saline with Tween-80
[3] = dose: 12.5 mg/kg/injection, schedule: Q01DX009 (ip), vehicle: saline
[4] = dose: 25.0 mg/kg/injection, schedule: Q01DX009 (ip), vehicle: saline
[5] = dose: 25.0 mg/kg/injection, schedule: Q04DX003 (ip), vehicle: Klucel (hydroxypropylcellulose) (HPC)
[6] = dose: 50.0 mg/kg/injection, schedule: Q04DX003 (ip), vehicle: Klucel (hydroxypropylcellulose) (HPC)
[7] = dose: 100.0 mg/kg/injection, schedule: Q01DX009 (ip), vehicle: Klucel (hydroxypropylcellulose) (HPC)
[8] = dose: 100.0 mg/kg/injection, schedule: Q04DX003 (ip), vehicle: Klucel (hydroxypropylcellulose) (HPC)
[9] = dose: 200.0 mg/kg/injection, schedule: Q01DX009 (ip), vehicle: Klucel (hydroxypropylcellulose) (HPC)
[10] = dose: 200.0 mg/kg/injection, schedule: Q04DX003 (ip), vehicle: Klucel (hydroxypropylcellulose) (HPC)
[11] = dose: 400.0 mg/kg/injection, schedule: Q04DX003 (ip), vehicle: Klucel (hydroxypropylcellulose) (HPC)
[12] = dose: 100.0 mg/kg/injection, schedule: Q01DX001 (ip), vehicle: saline
[13] = dose: 200.0 mg/kg/injection, schedule: Q01DX001 (ip), vehicle: saline
[14] = dose: 400.0 mg/kg/injection, schedule: Q01DX001 (ip), vehicle: saline
[15] = dose: 100.0 mg/kg/injection, schedule: Q04DX003 (ip), vehicle: saline with Tween-80
[16] = dose: 400.0 mg/kg/injection, schedule: Q04DX003 (ip), vehicle: saline with Tween-80
[17] = dose: 100.0 mg/kg/injection, schedule: Q01DX009 (ip), vehicle: saline with Tween-80
[18] = dose: 200.0 mg/kg/injection, schedule: Q01DX009 (ip), vehicle: saline with Tween-80
[19] = dose: 400.0 mg/kg/injection, schedule: Q01DX009 (ip), vehicle: saline with Tween-80
[20] = dose: 100.0 mg/kg/injection, schedule: Q04DX002 (ip), vehicle: saline with Tween-80
[21] = dose: 200.0 mg/kg/injection, schedule: Q04DX002 (ip), vehicle: saline with Tween-80
[22] = dose: 400.0 mg/kg/injection, schedule: Q04DX002 (ip), vehicle: saline with Tween-80
[23] = dose: 50.0 mg/kg/injection, schedule: Q01DX009 (ip), vehicle: saline with Tween-80

Measured: T/C

CCCCNCCC(=O)c1ccc(Cl)cc1
inactive: dose: 6.25 mg/kg/injection, schedule: Q01DX009 (ip), vehicle: saline with Tween-80 98 % of control | [1] 100 % of control | [2] 94 % of control

Nc1ccc(S(=O)(=O)c2cc(O)c3ccccc3c2O)cc1
inactive: [3] 91 % of control | dose: 12.5 mg/kg/injection, schedule: Q04DX003 (ip), vehicle: Klucel (hydroxypropylcellulose) (HPC) 103 % of control | [4] 91 % of control | [5] 102 % of control | [6] 92 % of control

COc1ccc(OC)c(NC(=O)Nc2nccs2)c1
inactive: dose: 100.0 mg/kg/injection, schedule: Q01DX001 (ip), vehicle: Klucel (hydroxypropylcellulose) (HPC) 95 % of control | [7] 97 % of control | dose: 100.0 mg/kg/injection, schedule: Q04DX002 (ip), vehicle: Klucel (hydroxypropylcellulose) (HPC) 97 % of control and 98 % of control | [8] 96 % of control and 122 % of control | dose: 200.0 mg/kg/injection, schedule: Q01DX001 (ip), vehicle: Klucel (hydroxypropylcellulose) (HPC) 90 % of control | [9] 88 % of control | dose: 200.0 mg/kg/injection, schedule: Q04DX002 (ip), vehicle: Klucel (hydroxypropylcellulose) (HPC) 96 % of control and 90 % of control | [10] 100 % of control | dose: 400.0 mg/kg/injection, schedule: Q01DX001 (ip), vehicle: Klucel (hydroxypropylcellulose) (HPC) 95 % of control | dose: 400.0 mg/kg/injection, schedule: Q01DX009 (ip), vehicle: Klucel (hydroxypropylcellulose) (HPC) 91 % of control | dose: 400.0 mg/kg/injection, schedule: Q04DX002 (ip), vehicle: Klucel (hydroxypropylcellulose) (HPC) 96 % of control and 101 % of control | [11] 102 % of control and 116 % of control

Cc1coc(NS(=O)(=O)c2ccc(N=Nc3c(N)[nH]c(=S)[nH]c3=O)cc2)c1C
inactive: [12] 113 % of control | [13] 107 % of control | [14] 101 % of control

CC(Br)C1=CC(c2ccccc2)(c2ccccc2)c2ccccc21 (centres undefined)
inactive: [15] 90 % of control | [16] 90 % of control

Nc1nn(-c2ccccc2)c(N)c1N=Nc1ccccc1
inactive: dose: 50.0 mg/kg/injection, schedule: Q01DX009 (ip), vehicle: Klucel (hydroxypropylcellulose) (HPC) 98 % of control | [7] 98 % of control | [9] 98 % of control

C/C(=N\O)c1ccc2ccc3ccccc3c2c1
inactive: dose: 100.0 mg/kg/injection, schedule: Q01DX009 (ip), vehicle: saline sonified 105 % of control | [17] 101 % of control | [8] 103 % of control | dose: 200.0 mg/kg/injection, schedule: Q01DX009 (ip), vehicle: saline sonified 93 % of control | [18] 93 % of control | [10] 103 % of control | dose: 400.0 mg/kg/injection, schedule: Q01DX009 (ip), vehicle: saline sonified 94 % of control | [19] 95 % of control | [11] 115 % of control

COC(=O)c1cn(C2OC(CO)C(O)C2O)c2ncnc(N)c12 (centres undefined)
inactive: dose: 20.0 mg/kg/injection, schedule: Q01DX001 (ip), vehicle: water 108 % of control | dose: 40.0 mg/kg/injection, schedule: Q01DX001 (ip), vehicle: water 89 % of control

CCOC(=O)/C=C/SCCCC(=O)O
inactive: [17] 96 % of control | [18] 88 % of control

CCOC(=O)C1C2/C=C/CCCCC21 (centres undefined)
inactive: [20] 105 % of control | [21] 112 % of control | [22] 98 % of control

OCC(O)COc1ccnc2ccccc12 (centres undefined)
inactive: dose: 100.0 mg/kg/injection, schedule: Q01DX009 (ip), vehicle: acetone 105 % of control | dose: 200.0 mg/kg/injection, schedule: Q01DX009 (ip), vehicle: acetone 97 % of control | dose: 400.0 mg/kg/injection, schedule: Q01DX009 (ip), vehicle: acetone 97 % of control

Cc1ccc(NC(=O)Nc2c(C)n(C)n(-c3ccccc3)c2=O)c([N+](=O)[O-])c1
inactive: [8] 94 % of control | [10] 91 % of control | [11] 91 % of control

CSCCC(NC(=O)C(N)C(C)C)C(=O)O (stereo not drawn) (H-Val-Met-OH; configuration not given here)
inactive: dose: 100.0 mg/kg/injection, schedule: Q04DX003 (ip), vehicle: saline 100 % of control | dose: 200.0 mg/kg/injection, schedule: Q04DX003 (ip), vehicle: saline 108 % of control | dose: 400.0 mg/kg/injection, schedule: Q04DX003 (ip), vehicle: saline 103 % of control

OCC1OCCO1
inactive: [17] 96 % of control | [15] 110 % of control | [18] 93 % of control | dose: 200.0 mg/kg/injection, schedule: Q04DX003 (ip), vehicle: saline with Tween-80 102 % of control | [19] 96 % of control | [16] 100 % of control

CCCOC(C)CC(c1ccccc1)(c1ccccc1)c1ccccc1 (centres undefined)
inactive: [1] 98 % of control | [2] 95 % of control | [23] 91 % of control | [18] 90 % of control

O=C1OC2C(I)C3CC1C2C3 (centres undefined)
inactive: [23] 96 % of control | [17] 95 % of control

CS(=O)NOCCCCONS(C)=O (centres undefined)
inactive: [20] 96 % of control and 89 % of control | [21] 96 % of control and 100 % of control | [22] 86 % of control

CC1CC(C)(C)N=C(C(C)C)O1 (centres undefined)
inactive: [3] 100 % of control | [4] 102 % of control | dose: 50.0 mg/kg/injection, schedule: Q01DX009 (ip), vehicle: saline 98 % of control | dose: 50.0 mg/kg/injection, schedule: Q04DX003 (ip), vehicle: saline with Tween-80 95 % of control | dose: 100.0 mg/kg/injection, schedule: Q01DX009 (ip), vehicle: saline 110 % of control | [15] 93 % of control

CC1C(=O)OC2CC[N+]3([O-])CC=C(COC(=O)C(C)(O)C1(C)O)C23 (centres undefined)
inactive: [12] 96 % of control | [13] 96 % of control | [14] 102 % of control

CC(C)C(C#N)(CCCCN1CCOCC1)c1cccc2ccccc12 (centres undefined)
inactive: [5] 93 % of control | [6] 103 % of control | [8] 92 % of control

COP1(=O)C=C(C)CC1 (centres undefined)
inactive: [12] 95 % of control | [13] 95 % of control | [14] 95 % of control

CC1C(C)(C)P(=O)(c2ccccc2)C1(C)C (centres undefined)
inactive: dose: 12.5 mg/kg/injection, schedule: Q04DX003 (ip), vehicle: saline 96 % of control | dose: 25.0 mg/kg/injection, schedule: Q04DX003 (ip), vehicle: saline 96 % of control | dose: 50.0 mg/kg/injection, schedule: Q04DX003 (ip), vehicle: saline 105 % of control

CC(C)(C)OC(=O)C1OC1(C)c1ccccc1 (centres undefined)
inactive: dose: 75.0 mg/kg/injection, schedule: Q01DX001 (ip), vehicle: other 106 % of control | dose: 150.0 mg/kg/injection, schedule: Q01DX001 (ip), vehicle: other 107 % of control | dose: 300.0 mg/kg/injection, schedule: Q01DX001 (ip), vehicle: other 98 % of control

— PubChem BioAssay AID248 (DTP/NCI, 2004)
